Results as given in patent US9447091B2, “Protein kinase inhibitors” (Orion Corporation, priority 2011, dated 2016).

Key:
[1] = target: FGFR1 kinase (Homo sapiens (Human), UniProt P11362); test: FGFR1 TR-FRET kinase assay; format: biochemical; settings: for inhibition at 1 µM: 1000 nM compound; for IC50: 13 μM ATP, read-out: IC50 of FGFR1 inhibition
Description: Compounds were screened in the TR-FRET assay with FGFR1 kinase. 5 ng of FGFR1 [Upstate, USA] kinase was used for assay. The compound was incubated with the kinase for 30 minutes at RT. After the incubation, substrate mix [40 nM Ultra light poly GT (Perkin Elmer, USA) and 13 μM ATP (Sigma)] was added. The above reaction was stopped by the addition of 40 mM EDTA after the […] kinase reaction. The Eu-labelled antiphospho-tyrosine antibody [Perkin Elmer, USA] was added at 0.5 nM and the fluorescence emission at 615 nm/665 nm [excitation at 340 nm] was measured. The compounds were initially screened at 100 nM and 1 μM concentrations. The compounds with >50% inhibition at 100 nM of FGFR1 were taken for the full dose response studies. The final DMSO concentration in the assay was 1%. For IC50 determination, ⅓^rd serial dilution was made from the 20 mM DMSO stock solution. 2 μl of these were transferred to the test wells containing 20 μl of the reaction mixture [total reaction volume 20 μl]. The fluorescence was measured in Perkin Elmer Wallac 1420 Multilabel Counter Victor 3. The IC50 was determined by fitting the dose response data to sigmoidal curve fitting equation using GraphPad Prism software V5.

[2] = target: c-Met kinase (Homo sapiens (Human), UniProt P08581); test: c-Met TR-FRET kinase assay; format: biochemical; settings: 1000 nM compound
Chain of c-Met kinase (P08581 25-1390): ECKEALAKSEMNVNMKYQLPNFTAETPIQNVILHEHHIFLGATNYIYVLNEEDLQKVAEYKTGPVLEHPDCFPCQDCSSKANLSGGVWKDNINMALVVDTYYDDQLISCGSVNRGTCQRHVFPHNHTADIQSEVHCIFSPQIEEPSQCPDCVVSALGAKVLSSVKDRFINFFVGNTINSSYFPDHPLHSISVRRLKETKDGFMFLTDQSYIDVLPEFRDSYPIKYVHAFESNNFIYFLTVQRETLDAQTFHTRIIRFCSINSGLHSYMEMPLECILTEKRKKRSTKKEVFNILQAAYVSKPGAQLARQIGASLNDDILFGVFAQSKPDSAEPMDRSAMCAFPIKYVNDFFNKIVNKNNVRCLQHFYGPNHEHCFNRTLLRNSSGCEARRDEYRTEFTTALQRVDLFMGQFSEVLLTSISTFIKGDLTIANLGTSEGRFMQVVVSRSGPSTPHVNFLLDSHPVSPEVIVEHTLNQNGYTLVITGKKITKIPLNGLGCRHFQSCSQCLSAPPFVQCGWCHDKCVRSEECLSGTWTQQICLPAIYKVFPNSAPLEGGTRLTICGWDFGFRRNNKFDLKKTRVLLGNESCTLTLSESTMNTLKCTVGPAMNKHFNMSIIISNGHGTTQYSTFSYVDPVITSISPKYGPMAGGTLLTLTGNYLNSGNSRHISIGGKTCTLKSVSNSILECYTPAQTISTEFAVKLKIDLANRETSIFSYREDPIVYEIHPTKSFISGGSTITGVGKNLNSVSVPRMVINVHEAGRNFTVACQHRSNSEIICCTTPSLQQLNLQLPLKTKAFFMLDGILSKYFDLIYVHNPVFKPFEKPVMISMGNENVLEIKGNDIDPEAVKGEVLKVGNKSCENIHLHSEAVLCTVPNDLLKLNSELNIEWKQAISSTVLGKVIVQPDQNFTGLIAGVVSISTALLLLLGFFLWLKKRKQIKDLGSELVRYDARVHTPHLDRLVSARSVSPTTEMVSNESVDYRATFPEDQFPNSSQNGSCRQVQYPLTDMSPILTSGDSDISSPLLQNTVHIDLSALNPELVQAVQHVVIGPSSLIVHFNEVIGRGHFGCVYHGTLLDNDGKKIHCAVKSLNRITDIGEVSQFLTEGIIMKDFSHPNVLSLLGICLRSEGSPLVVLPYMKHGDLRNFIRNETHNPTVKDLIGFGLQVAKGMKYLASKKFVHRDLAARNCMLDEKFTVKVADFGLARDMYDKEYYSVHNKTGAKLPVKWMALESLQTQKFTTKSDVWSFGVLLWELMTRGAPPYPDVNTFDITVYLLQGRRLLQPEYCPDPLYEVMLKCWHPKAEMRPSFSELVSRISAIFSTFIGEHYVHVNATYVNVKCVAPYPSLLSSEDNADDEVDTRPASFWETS
Description: Compounds were screened in the TR-FRET assay with c-Met kinase. 0.1 ng of c-Met [expressed in-house] kinase was used for assay. The compound was incubated with the kinase for 60 min at RT. After the incubation, substrate mix [40 nM Ultra light poly GT (Perkin Elmer, USA) and 10 μM ATP (Sigma)] was added. The above reaction was stopped by the addition of 40 mM EDTA after the 30 min kinase reaction. The Eu-labelled antiphospho-tyrosine antibody [Perkin Elmer, USA] was added at 0.5 nM and the fluorescence emission at 615 nm/665 nm [excitation at 340 nm] was measured. The compounds were initially screened at 100 nM and 1 μM concentrations. The compounds with >50% inhibition at 100 nM of c-Met were taken for the full dose response studies. The final DMSO concentration in the assay was 1%. For IC50 determination, ⅓rd serial dilution was made from the 20 mM DMSO stock solution. 2 μl of these were transferred to the test wells containing 20 μl reaction mixture [total reaction volume 20 μl]. The fluorescence was measured in Perkin Elmer Wallac 1420 Multilabel Counter Victor 3. The IC50 was determined by fitting the dose response data to sigmoidal curve fitting equation using GraphPad Prism software V5.

Chain of FGFR1 kinase (P11362 22-822): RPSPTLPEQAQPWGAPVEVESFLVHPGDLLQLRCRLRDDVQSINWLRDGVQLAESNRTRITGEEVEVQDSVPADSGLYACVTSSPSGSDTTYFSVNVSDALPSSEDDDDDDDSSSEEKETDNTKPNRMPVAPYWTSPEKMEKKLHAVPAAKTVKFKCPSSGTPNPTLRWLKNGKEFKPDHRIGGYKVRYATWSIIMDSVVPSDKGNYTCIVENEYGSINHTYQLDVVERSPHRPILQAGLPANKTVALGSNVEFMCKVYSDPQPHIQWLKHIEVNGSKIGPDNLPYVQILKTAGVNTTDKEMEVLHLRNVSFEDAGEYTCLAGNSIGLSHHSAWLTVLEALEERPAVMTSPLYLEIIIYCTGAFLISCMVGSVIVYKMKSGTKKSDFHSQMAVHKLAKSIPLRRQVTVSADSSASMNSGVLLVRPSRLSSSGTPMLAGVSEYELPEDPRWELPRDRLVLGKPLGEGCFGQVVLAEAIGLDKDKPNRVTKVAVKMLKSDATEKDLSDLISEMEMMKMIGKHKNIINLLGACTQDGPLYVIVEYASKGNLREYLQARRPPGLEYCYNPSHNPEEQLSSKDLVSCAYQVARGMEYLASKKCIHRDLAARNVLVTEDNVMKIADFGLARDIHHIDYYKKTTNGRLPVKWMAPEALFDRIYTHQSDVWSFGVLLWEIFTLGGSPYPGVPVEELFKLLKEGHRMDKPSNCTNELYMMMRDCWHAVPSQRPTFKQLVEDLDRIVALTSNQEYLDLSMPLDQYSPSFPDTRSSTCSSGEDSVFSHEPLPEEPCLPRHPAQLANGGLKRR

| Compound | inhibition at 1 µM [1] [%] | IC50 [1] [nM] | inhibition at 1 µM [2] [%] |
| --- | --- | --- | --- |
| CCS(=O)(=O)Nc1cc(-c2ccc(F)cc2F)cc(-n2cnc3cc(-n4cccn4)ccc32)c1 [Example 30, N-(5-(5-(1H-pyrazol-1-yl)-1H-benzo[d]imidazol-1-yl)-2′,4′-difluorobiphenyl-3-yl)ethanesulfonamide] | 94 | 16 | 1 |
| CC(=O)Nc1cc(-n2cncn2)cc(-n2cnc3cc(-c4cnn(C)c4)ccc32)c1 [Example 155, N-(3-(5-(1-methyl-1H-pyrazol-4-yl)-1H-benzo[d]imidazol-1-yl)-5-(1H-1,2,4-triazol-1-yl)phenyl)acetamide] | 89 | 62 | 1 |
| CC(C)(O)CCn1cc(-c2ccc3c(c2)ncn3-c2cc(NS(=O)(=O)C3CC3)cc(-c3ccc(F)cc3F)c2)nn1 [Example 47, N-(2′,4′-difluoro-5-(5-(1-(3-hydroxy-3-methylbutyl)-1H-1,2,3-triazol-4-yl)-1H-benzo[d]imidazol-1-yl)biphenyl-3-yl)cyclopropanesulfonamide] | 99 | 7 | 10 |
| CC(=O)Nc1cc(-c2c(F)cccc2F)cc(-n2cnc3cc(-n4cccn4)ccc32)c1 [Example 152, N-(5-(5-(1H-pyrazol-1-yl)-1H-benzo[d]imidazol-1-yl)-2′,6′-difluorobiphenyl-3-yl)acetamide] | 79 | 7.3 | 0 |
| Cn1cc(-c2cnc3c(c2)ncn3-c2cc(NS(=O)(=O)c3ccccc3)cc(-c3ccc(F)cc3F)c2)cn1 [Example 134, N-(2′,4′-difluoro-5-(6-(1-methyl-1H-pyrazol-4-yl)-3H-imidazo[4,5-b]pyridin-3-yl)biphenyl-3-yl)benzenesulfonamide] | 92 | 98 | 0 |
| CCS(=O)(=O)Nc1cc(-c2ccc(F)cc2F)cc(-n2cnc3cc(-c4cn(CCN5CCOCC5)nn4)ccc32)c1 [Example 49, N-(2′,4′-difluoro-5-(5-(1-(2-morpholinoethyl)-1H-1,2,3-triazol-4-yl)-1H-benzo[d]imidazol-1-yl)biphenyl-3-yl)ethanesulfonamide] | 98 | 3.4 | 9 |
